Data published in ChEMBL document CHEMBL1133354, “5-Thienyltryptamine derivatives as serotonin 5-HT1B/1D receptor agonists: potential treatments for migraine” (Bioorg Med Chem Lett, 2000).

What was measured:
[1] = biological target: 5-hydroxytryptamine receptor 1B (Homo sapiens, UniProt P28222); experiment: Binding affinity for human 5-hydroxytryptamine 1B receptor
[2] = biological target: 5-hydroxytryptamine receptor 1D (Homo sapiens, UniProt P28221); experiment: Binding affinity for human 5-hydroxytryptamine 1D receptor
Chain of 5-hydroxytryptamine receptor 1D (P28221 whole entry): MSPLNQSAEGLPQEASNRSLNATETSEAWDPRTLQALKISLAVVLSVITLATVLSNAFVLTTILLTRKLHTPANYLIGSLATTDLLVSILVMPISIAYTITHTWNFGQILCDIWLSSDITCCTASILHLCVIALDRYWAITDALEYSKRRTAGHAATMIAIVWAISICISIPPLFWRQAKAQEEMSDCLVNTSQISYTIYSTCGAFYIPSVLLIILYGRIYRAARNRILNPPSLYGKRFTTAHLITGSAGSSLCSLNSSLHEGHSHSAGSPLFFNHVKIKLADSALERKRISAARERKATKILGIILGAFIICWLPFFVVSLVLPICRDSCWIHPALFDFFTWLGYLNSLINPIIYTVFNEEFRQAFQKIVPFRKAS

Chain of 5-hydroxytryptamine receptor 1B (P28222 whole entry): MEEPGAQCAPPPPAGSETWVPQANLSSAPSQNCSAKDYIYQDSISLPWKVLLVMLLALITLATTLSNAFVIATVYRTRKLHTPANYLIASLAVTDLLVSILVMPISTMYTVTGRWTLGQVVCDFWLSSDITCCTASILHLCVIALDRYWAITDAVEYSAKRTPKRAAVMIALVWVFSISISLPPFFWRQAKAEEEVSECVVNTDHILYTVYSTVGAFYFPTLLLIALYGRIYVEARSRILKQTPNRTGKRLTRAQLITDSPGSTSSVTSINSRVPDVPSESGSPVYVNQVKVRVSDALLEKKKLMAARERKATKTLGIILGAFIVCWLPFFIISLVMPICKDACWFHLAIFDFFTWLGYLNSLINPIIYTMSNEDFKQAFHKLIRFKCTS

SMILES | Ki [1] [nM] | Ki [2] [nM]
CN(C)CCc1c[nH]c2ccc(-c3cccs3)cc12 | 23 | 0.7
CN(C)CCc1c[nH]c2ccc(-c3ccsc3)cc12 | 17 | 0.5
C1=CCN(CCc2c[nH]c3ccc(-c4cccs4)cc23)C1 | 107 | 4.5
CC1CCC(C)N1CCc1c[nH]c2ccc(-c3cccs3)cc12 (configuration not stated) | 70 | 2.5
OC[C@@H]1CCCN1CCc1c[nH]c2ccc(-c3cccs3)cc12 | 113 | 8.2
Cc1ccc(-c2ccc3[nH]cc(CCN(C)C)c3c2)s1 | 133 | 3.2
c1csc(-c2ccc3[nH]cc(CCN4CCCC4)c3c2)c1 | 714 | 19
NCCc1c[nH]c2ccc(-c3cccs3)cc12 | 32 | 1.7
COC[C@@H]1CCCN1CCc1c[nH]c2ccc(-c3cccs3)cc12 | 9.9 | 1.8
CN(C)CCc1c[nH]c2ccc(-c3ccc(Cl)s3)cc12 | 303 | 7.6
Clc1ccc(-c2ccc3[nH]cc(CCN4CCCC4)c3c2)s1 | 476 | 31
